Assay results taken from patent publication US10131652B2, “Pyrimidinyloxy benzene derivatives as herbicides” (E. I. DU PONT DE NEMOURS AND COMPANY, priority 2014, dated 2018).

Key:
Format in all cases: in vivo
[1] = tested on: barnyardgrass (Echinochloa crus-galli); assay: Test B pre-/postemergence plant response; conditions: for Barnyardgrass plant response rating: 0 to 100 scale (0 no effect, 100 complete control)
Procedure, shortened: (§1)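 Greenhouse pots, loam/sand soil; compound formulated with surfactant in non-phytotoxic solvent. Preemergence soil spray and postemergence spray at 1–2 leaf stage run simultaneously. Visual injury, 0–100, about 10 days post-treatment.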

[2] = tested on: corn (Zea mays); assay: Test B pre-/postemergence plant response; conditions: 0 to 100 scale, 0 no effect, 100 complete control
Procedure, shortened: as §1

[3] = tested on: giant foxtail (Setaria faberii); assay: Test B pre-/postemergence plant response; conditions: for Foxtail, Giant plant response rating: 0 to 100 scale (0 no effect, 100 complete control)
Procedure, shortened: as §1

[4] = tested on: pigweed (Amaranthus retroflexus); assay: Test B pre-/postemergence plant response; conditions: for Pigweed plant response rating: 0 to 100 scale (0 no effect, 100 complete control)
Procedure, shortened: as §1

[5] = tested on: wheat (Triticum aestivum); assay: Test B pre-/postemergence plant response; conditions: 125 g ai/ha, postemergence; 0 to 100 scale, 0 no effect, 100 complete control
Procedure, shortened: as §1

[6] = tested on: barnyardgrass (Echinochloa crus-galli); assay: Test D pre-/postemergence plant response
Procedure, shortened: (§2)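 Plants are held in a greenhouse 13 to 15 days after spraying, then injury is rated by eye relative to controls on a 0 to 100 scale. Treatments are preemergence on freshly sown loam/sand pots or postemergence at 1- to 4-leaf stage in peat-based medium; surfactant-containing solvent formulation.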

[7] = tested on: blackgrass (Alopecurus myosuroides); assay: Test D pre-/postemergence plant response
Procedure, shortened: as §2

[8] = tested on: giant foxtail (Setaria faberii); assay: Test D pre-/postemergence plant response
Procedure, shortened: as §2

[9] = tested on: johnsongrass (Sorghum halepense); assay: Test D pre-/postemergence plant response
Procedure, shortened: as §2

[10] = tested on: large (Lg) crabgrass (Digitaria sanguinalis); assay: Test D pre-/postemergence plant response
Procedure, shortened: as §2

[11] = tested on: morningglory (Ipomoea coccinea); assay: Test D pre-/postemergence plant response
Procedure, shortened: as §2

[12] = tested on: pigweed (Amaranthus retroflexus); assay: Test D pre-/postemergence plant response
Procedure, shortened: as §2

[13] = tested on: ragweed (common ragweed, Ambrosia elatior); assay: Test D pre-/postemergence plant response
Procedure, shortened: as §2

[14] = tested on: soybean (Glycine max); assay: Test D pre-/postemergence plant response
Procedure, shortened: as §2

[15] = tested on: waterhemp (common waterhemp, Amaranthus rudis); assay: Test D pre-/postemergence plant response
Procedure, shortened: as §2

[16] = tested on: yellow nutsedge (Cyperus esculentus); assay: Test D pre-/postemergence plant response
Procedure, shortened: as §2

[17] = 31 g ai/ha, Postemergence, 0 to 100 scale, 0 no effect, 100 complete control
[18] = 31 g ai/ha, Preemergence, 0 to 100 scale where 0 is no effect and 100 is complete control
[19] = 125 g ai/ha, postemergence, 0 to 100 scale, 0 no effect, 100 complete control
[20] = Postemergence, 16 g ai/ha, scale 0 to 100 (0 no effect, 100 complete control)
[21] = Postemergence, 31 g ai/ha, scale 0 to 100 (0 no effect, 100 complete control)
[22] = Postemergence, 62 g ai/ha, scale 0 to 100, 0 no effect, 100 complete control
[23] = Postemergence, 125 g ai/ha, scale 0 to 100, 0 no effect, 100 complete control
[24] = Preemergence, 16 g ai/ha, scale 0 to 100 (0 no effect, 100 complete control)
[25] = Preemergence, 31 g ai/ha, scale 0 to 100 (0 no effect, 100 complete control)
[26] = Preemergence, 62 g ai/ha, scale 0 to 100 (0 no effect, 100 complete control)

Fc1cccc(Oc2ncc(Cl)cn2)c1-c1cc(C2CC2)on1 [Compound 130]
Plant response rating, Barnyardgrass [1, 17]: 40
Plant response rating, Barnyardgrass [1, 18]: 50
Plant response rating, Barnyardgrass [1, 19]: 100
Barnyardgrass plant response rating ([1]; Preemergence, 125 g ai/ha): 90
Plant response rating, Corn ([2]; 31 g ai/ha, Postemergence): 20
Plant response rating, Corn ([2]; 125 g ai/ha, postemergence): 40
Plant response rating, Foxtail, Giant [3, 17]: 50
Plant response rating, Foxtail, Giant [3, 18]: 90
Plant response rating, Foxtail, Giant [3, 19]: 80
Foxtail, Giant plant response rating ([3]; Preemergence, 125 g ai/ha): 100
Plant response rating, Pigweed [4, 18]: 100
Plant response rating, Pigweed [4, 19]: 100
Pigweed plant response rating ([4]; Preemergence, 125 g ai/ha): 100
Plant response rating, Wheat [5]: 40
Barnyardgrass plant response rating [6, 20]: 10
Barnyardgrass plant response rating [6, 21]: 10
Plant response rating, Barnyardgrass [6, 22]: 10
Plant response rating, Barnyardgrass [6, 23]: 25
Blackgrass plant response rating [7, 20]: 0
Blackgrass plant response rating [7, 21]: 5
Plant response rating, Blackgrass [7, 22]: 20
Plant response rating, Blackgrass [7, 23]: 30
Foxtail, Giant plant response rating [8, 20]: 5
Foxtail, Giant plant response rating [8, 21]: 5
Plant response rating, Foxtail, Giant [8, 22]: 10
Plant response rating, Foxtail, Giant [8, 23]: 25
Johnsongrass plant response rating [9, 21]: 5
Plant response rating, Johnsongrass [9, 22]: 5
Plant response rating, Johnsongrass [9, 23]: 10
Crabgrass, Large plant response rating [10, 20]: 10
Crabgrass, Large plant response rating [10, 21]: 20
Plant response rating, Crabgrass, Large [10, 22]: 20
Plant response rating, Crabgrass, Large [10, 23]: 25
Morningglory plant response rating [11, 21]: 80
Plant response rating, Morningglory [11, 22]: 85
Plant response rating, Morningglory [11, 23]: 85
Pigweed plant response rating [12, 21]: 95
Plant response rating, Pigweed [12, 22]: 98
Plant response rating, Pigweed [12, 23]: 98
Ragweed plant response rating [13, 21]: 60
Plant response rating, Ragweed [13, 22]: 75
Plant response rating, Ragweed [13, 23]: 40
Soybean plant response rating [14, 21]: 55
Plant response rating, Soybean [14, 22]: 98
Plant response rating, Soybean [14, 23]: 95
Waterhemp plant response rating [15, 21]: 85
Plant response rating, Waterhemp [15, 22]: 98
Plant response rating, Waterhemp [15, 23]: 98
Nutsedge, Yellow plant response rating [16, 21]: 5
Plant response rating, Nutsedge, Yellow [16, 22]: 20
Plant response rating, Nutsedge, Yellow [16, 23]: 25

FC(F)Oc1cccc(Oc2ncc(Cl)cn2)c1-c1cc(C(F)F)on1 [Compound 131]
Plant response rating, Barnyardgrass [1, 17]: 50
Plant response rating, Barnyardgrass [1, 18]: 80
Plant response rating, Barnyardgrass [1, 19]: 90
Barnyardgrass plant response rating ([1]; Preemergence, 125 g ai/ha): 100
Plant response rating, Corn ([2]; 31 g ai/ha, Postemergence): 20
Plant response rating, Corn ([2]; 125 g ai/ha, postemergence): 40
Plant response rating, Foxtail, Giant [3, 17]: 50
Plant response rating, Foxtail, Giant [3, 18]: 100
Plant response rating, Foxtail, Giant [3, 19]: 90
Foxtail, Giant plant response rating ([3]; Preemergence, 125 g ai/ha): 100
Plant response rating, Pigweed [4, 18]: 100
Plant response rating, Pigweed [4, 19]: 100
Pigweed plant response rating ([4]; Preemergence, 125 g ai/ha): 100
Plant response rating, Wheat [5]: 30
Barnyardgrass plant response rating [6, 20]: 10
Barnyardgrass plant response rating [6, 21]: 10
Plant response rating, Barnyardgrass [6, 22]: 10
Plant response rating, Barnyardgrass [6, 23]: 20
Plant response rating (scale 0 to 100), Barnyardgrass ([6]; Preemergence, 125 g ai/ha): 100
Plant response rating, Barnyardgrass [6, 24]: 30
Plant response rating, Barnyardgrass [6, 25]: 75
Plant response rating, Barnyardgrass [6, 26]: 85
Blackgrass plant response rating [7, 20]: 5
Blackgrass plant response rating [7, 21]: 5
Plant response rating, Blackgrass [7, 22]: 5
Plant response rating, Blackgrass [7, 23]: 30
Plant response rating (scale 0 to 100), Blackgrass ([7]; Preemergence, 125 g ai/ha): 95
Plant response rating, Blackgrass [7, 24]: 5
Plant response rating, Blackgrass [7, 25]: 80
Plant response rating, Blackgrass [7, 26]: 90
Foxtail, Giant plant response rating [8, 20]: 10
Foxtail, Giant plant response rating [8, 21]: 10
Plant response rating, Foxtail, Giant [8, 22]: 15
Plant response rating, Foxtail, Giant [8, 23]: 15
Plant response rating (scale 0 to 100), Foxtail, Giant ([8]; Preemergence, 125 g ai/ha): 100
Plant response rating, Foxtail, Giant [8, 24]: 80
Plant response rating, Foxtail, Giant [8, 25]: 100
Plant response rating, Foxtail, Giant [8, 26]: 100
Johnsongrass plant response rating [9, 21]: 5
Plant response rating, Johnsongrass [9, 22]: 25
Plant response rating, Johnsongrass [9, 23]: 45
Plant response rating (scale 0 to 100), Johnsongrass ([9]; Preemergence, 125 g ai/ha): 85
Plant response rating, Johnsongrass [9, 24]: 0
Plant response rating, Johnsongrass [9, 25]: 30
Plant response rating, Johnsongrass [9, 26]: 80
Crabgrass, Large plant response rating [10, 20]: 5
Crabgrass, Large plant response rating [10, 21]: 5
Plant response rating, Crabgrass, Large [10, 22]: 10
Plant response rating, Crabgrass, Large [10, 23]: 20
Plant response rating (scale 0 to 100), Crabgrass, Large ([10]; Preemergence, 125 g ai/ha): 100
Plant response rating, Crabgrass, Large [10, 24]: 98
Plant response rating, Crabgrass, Large [10, 25]: 100
Plant response rating, Crabgrass, Large [10, 26]: 100
Morningglory plant response rating [11, 21]: 75
Plant response rating, Morningglory [11, 22]: 75
Plant response rating, Morningglory [11, 23]: 95
Plant response rating (scale 0 to 100), Morningglory ([11]; Preemergence, 125 g ai/ha): 85
Plant response rating, Morningglory [11, 24]: 0
Plant response rating, Morningglory [11, 25]: 40
Plant response rating, Morningglory [11, 26]: 35
Pigweed plant response rating [12, 21]: 98
Plant response rating, Pigweed [12, 22]: 98
Plant response rating, Pigweed [12, 23]: 100
Plant response rating (scale 0 to 100), Pigweed ([12]; Preemergence, 125 g ai/ha): 100
Plant response rating, Pigweed [12, 24]: 100
Plant response rating, Pigweed [12, 25]: 100
Plant response rating, Pigweed [12, 26]: 100
Ragweed plant response rating [13, 21]: 45
Plant response rating, Ragweed [13, 22]: 65
Plant response rating, Ragweed [13, 23]: 75
Plant response rating (scale 0 to 100), Ragweed ([13]; Preemergence, 125 g ai/ha): 25
Plant response rating, Ragweed [13, 24]: 0
Plant response rating, Ragweed [13, 25]: 0
Plant response rating, Ragweed [13, 26]: 0
Soybean plant response rating [14, 21]: 15
Plant response rating, Soybean [14, 22]: 75
Plant response rating, Soybean [14, 23]: 65
Plant response rating (scale 0 to 100), Soybean ([14]; Preemergence, 125 g ai/ha): 85
Plant response rating, Soybean [14, 24]: 5
Plant response rating, Soybean [14, 25]: 10
Plant response rating, Soybean [14, 26]: 50
Waterhemp plant response rating [15, 21]: 90
Plant response rating, Waterhemp [15, 22]: 90
Plant response rating, Waterhemp [15, 23]: 98
Plant response rating (scale 0 to 100), Waterhemp ([15]; Preemergence, 125 g ai/ha): 100
Plant response rating, Waterhemp [15, 24]: 100
Plant response rating, Waterhemp [15, 25]: 100
Plant response rating, Waterhemp [15, 26]: 100
Nutsedge, Yellow plant response rating [16, 21]: 0
Plant response rating, Nutsedge, Yellow [16, 22]: 5
Plant response rating, Nutsedge, Yellow [16, 23]: 10
Plant response rating (scale 0 to 100), Nutsedge, Yellow ([16]; Preemergence, 125 g ai/ha): 70
Plant response rating, Nutsedge, Yellow [16, 24]: 0
Plant response rating, Nutsedge, Yellow [16, 25]: 5
Plant response rating, Nutsedge, Yellow [16, 26]: 5
